Values joined by “and” are separate entries in the source; they are usually repeats but may differ in a detail not shown here. Identical values can stand only once.
Experiments:
[1] = tested on: Δ5-elongase from Thraustochytrium ONC-T18; assay: Δ5-elongase (clone pYElo) expressed in Saccharomyces cerevisiae INVSc1, fed free fatty acid substrate, percent conversion by FAME GC; assay type: cell-based, Thraustochytrium sp. ONC-T18; conditions: pYElo in yeast
Description: The activity and specificity of the D4-desaturase and D5 elongase were determined using the yeast expression system. The transformed yeast was grown in SC-U medium containing 2% glucose, 1% Tergitol NP-40 for 48 hrs, 150 RPM at 30° C. A substrate medium was prepared containing SC-U, 2% galactose, 1% raffinose, 1% Tergitol NP-40 and 500 μM specific free fatty acid. The transformed yeast culture was inoculated into 100 ml substrate medium at an OD600 of 0.5 and cultures incubated at 20° C. for 5 days. The biomass was recovered by centrifugation at 2000 RPM for 5 min, washed once with 100 mM phosphate buffer (pH 7.0), then freeze dried. Fatty acid methyl ester gas chromatography was subsequently carried out to determine the efficiency of fatty acid desaturation and elongation. The percent conversion of the substrate was determined by calculating (product)/(substrate+product)*100. […]
The negative control strain was INVSc1 containing the unaltered pYES2 vector, and these were grown simultaneously. […] The FAMEs were resuspended in iso-octane and analysed by GC-FID. The percent conversion was calculated by dividing the product produced by the sum of (the product produced+the substrate added) and then multiplying by 100. […]

[2] = tested on: Δ4-desaturase from Thraustochytrium ONC-T18; assay: Δ4-desaturase (clone pYDes) expressed in Saccharomyces cerevisiae INVSc1, fed free fatty acid substrate, percent conversion by FAME GC; assay type: cell-based, Thraustochytrium sp. ONC-T18; conditions: for % conversion average, vector pYDes: pYDes in INVSc1, 500 μM substrate, GC-FID of FAMEs; for % conversion average, vector pYDes / % conversion With 0.01% ferric citrate: 96 hours at 20° C.; for increase With 0.01% ferric citrate: conversion with 0.01% ferric citrate versus without; for % conversion average (substrate to product) / % conversion With 0.01% ferric citrate: pYDes in yeast; for % conversion average (substrate to product): 500 μM free fatty acid substrate, 20° C., (product)/(substrate+product)*100; for % conversion With 0.01% ferric citrate: 500 μM substrate
Description: The activity and specificity of the D4-desaturase and D5 elongase were determined using the yeast expression system. The transformed yeast was grown in SC-U medium containing 2% glucose, 1% Tergitol NP-40 for 48 hrs, 150 RPM at 30° C. A substrate medium was prepared containing SC-U, 2% galactose, 1% raffinose, 1% Tergitol NP-40 and 500 μM specific free fatty acid. The transformed yeast culture was inoculated into 100 ml substrate medium at an OD600 of 0.5 and cultures incubated at 20° C. for 5 days. The biomass was recovered by centrifugation at 2000 RPM for 5 min, washed once with 100 mM phosphate buffer (pH 7.0), then freeze dried. Fatty acid methyl ester gas chromatography was subsequently carried out to determine the efficiency of fatty acid desaturation and elongation. The percent conversion of the substrate was determined by calculating (product)/(substrate+product)*100.
Clone pYDes, which consisted of the full length Δ4-desaturase cloned into pYES2 (Invitrogen, Carlsbad, Calif.), and clone pYElo, which consisted of the full-length Δ5-elongase gene in pYES2, were transformed into competent Saccharomyces cerevisiae INVSc1. Yeast transformation was carried out using the S. c. EasyComp Transformation kit (Invitrogen, Carlsbad, Calif.) according to conditions specified by the manufacturer. Transformants were selected for uracil auxotrophy on media lacking uracil (SC-Ura). To detect the specific desaturase activity of these clones, transformants were grown in the presence of 500 μM specific fatty acid substrates as listed below: A) Docosapentaenoic acid (22:5n-3) (conversion to docosahexaenoic acid would indicate Δ4-desaturase activity), B) Docosatetraenoic acid (22:4n-6) (conversion to docosapentaenoic acid (22:5n-6) would indicate Δ4-desaturase activity), C) Dihomo-gamma-linolenic acid (20:3n-6) (conversion to arachidonic acid (20:4n-6) would indicate Δ5-desaturase activity), D) Eicosapentaenoic acid (20:5n-3) (conversion to docosapentaenoic acid (22:5n-3) would indicate Δ5-elongase activity), E) Arachidonic acid (20:4n-6) (conversion to docosatetraenoic acid (22:4n-6) would indicate Δ5-elongase activity)
The negative control strain was INVSc1 containing the unaltered pYES2 vector, and these were grown simultaneously. The cultures were vigorously agitated (150 rpm) and grown for 96 hours at 20° C. in the presence of 500 μM (final concentration) of the various substrates. The cells were pelleted and washed in 100 mM phosphate buffer, pH 7.0, cell pellets were freeze dried. The lipids were then extracted and derivitized to fatty acid methyl esters (FAME) for gas chromatography analysis (GC). Transesterification and extraction was done using 100 mg freeze dried cells, with C19:0 as internal standard, added transesterification reaction mix (methanol: hydrochloric acid: chloroform, 10:1:1) mixed and heated at 90° C. for 2 hours, then allowed to cool at room temperature. FAMEs were extracted by adding 1 ml water, and 2 ml hexane: chloroform (4:1), and allow organic and aqueous phases to separate. The organic layer was extracted and treated with 0.5 g of anhydrous sodium sulfate to remove particulates and residual water. The organic solvents were evaporated under a stream of argon. The FAMEs were resuspended in iso-octane and analysed by GC-FID. The percent conversion was calculated by dividing the product produced by the sum of (the product produced+the substrate added) and then multiplying by 100.
Clone pYDes, which consisted of the full length Δ4-desaturase cloned into pYES2 (Invitrogen, Carlsbad, Calif.), was transformed into competent Saccharomyces cerevisiae INVSc1. The negative control strain was INVSc1 containing the unaltered pYES2 vector, and these were grown simultaneously.

With `CCCCC/C=C\C/C=C\C/C=C\C/C=C\CCCC(=O)O` [ARA, Arachidonic acid (20:4n-6)] the “conversion of substrate by pYElo” value [1] was “minimal conversion”.

In the case of `CCCCC/C=C\C/C=C\C/C=C\CCCCCCC(=O)O` [DGLA, Dihomo-gamma-linolenic acid (20:3n-6)], the “% conversion average, vector pYDes” value [2] is reported as 0.87%.

With `CC/C=C\C/C=C\C/C=C\C/C=C\C/C=C\CCCCCC(=O)O` [DPA, Docosapentaenoic acid (22:5n-3)] the “increase With 0.01% ferric citrate” value [2] was 2.75 fold, the “% conversion average, vector pYDes” value [2] was 14% and the “% conversion average, vector pYDes” value ([2]; listed as C22:5 n-3) was 14.04%. The “% conversion average (substrate to product)” value [2] was 14.04%, the “% conversion average (substrate to product)” value ([2]; listed as DPA n-3) was 14% and the “% conversion With 0.01% ferric citrate” value [2] was 38.70%. For the same molecule, the “DPA to DHA conversion on addition of ferric citrate to the media” value ([2]; pYDes, trace metal ferric citrate added) was “increase”.

With `CCCCC/C=C\C/C=C\C/C=C\C/C=C\CCCCCC(=O)O` [DTA, Docosatetraenoic acid (22:4n-6)] the “increase With 0.01% ferric citrate” value [2] was 2.43 fold, the “% conversion average, vector pYDes” value [2] was 14% and the “% conversion average, vector pYDes” value ([2]; listed as C22:4 n-6) was 13.76%. For the same molecule, the “% conversion average (substrate to product)” value [2] was 14% and 13.76% and the “% conversion With 0.01% ferric citrate” value [2] was 33.43%.

For `CC/C=C\C/C=C\C/C=C\C/C=C\C/C=C\CCCC(=O)O` [EPA, Eicosapentaenoic acid (20:5n-3)], the “conversion of substrate by pYElo” value [1] was “minimal conversion”.
